Several values for one entry are separate records, joined by “and”; a condition that tells them apart may be missing. Identical values can stand only once. Toxic doses and inconclusive results are not listed. The calls were made as follows: active = survival T/C of 150% or more; inactive = T/C below 125% in these data.
System: P388 leukemia ip, CD2F1 mice, survival T/C
Assay: NCI In Vivo Anticancer Drug Screen. Data for tumor model P388 Leukemia (intraperitoneal) in CD2F1 (CDF1) mice
Conditions: endpoint: median survival time, higher = longer survival
Method in brief: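 Mice carrying the transplanted tumor received test compound or vehicle. Survival was recorded in each group, and the value is the treated-group measurement divided by that of the vehicle-treated control group.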

[1] = dose: 100.0 mg/kg/injection, schedule: Q01DX009 (ip), vehicle: saline with Tween-80
[2] = dose: 100.0 mg/kg/injection, schedule: Q04DX003 (ip), vehicle: saline with Tween-80
[3] = dose: 200.0 mg/kg/injection, schedule: Q01DX009 (ip), vehicle: saline with Tween-80
[4] = dose: 200.0 mg/kg/injection, schedule: Q04DX003 (ip), vehicle: saline with Tween-80
[5] = dose: 400.0 mg/kg/injection, schedule: Q04DX003 (ip), vehicle: saline with Tween-80
[6] = dose: 50.0 mg/kg/injection, schedule: Q01DX005 (ip), vehicle: saline with Tween-80
[7] = dose: 100.0 mg/kg/injection, schedule: Q01DX005 (ip), vehicle: saline with Tween-80
[8] = dose: 200.0 mg/kg/injection, schedule: Q01DX005 (ip), vehicle: saline with Tween-80
[9] = dose: 50.0 mg/kg/injection, schedule: Q01DX005 (ip), vehicle: Klucel (hydroxypropylcellulose) (HPC)
[10] = dose: 100.0 mg/kg/injection, schedule: Q01DX005 (ip), vehicle: Klucel (hydroxypropylcellulose) (HPC)
[11] = dose: 60.0 mg/kg/injection, schedule: Q01DX005 (ip), vehicle: Klucel (hydroxypropylcellulose) (HPC)
[12] = dose: 120.0 mg/kg/injection, schedule: Q01DX005 (ip), vehicle: Klucel (hydroxypropylcellulose) (HPC)
[13] = dose: 60.0 mg/kg/injection, schedule: Q01DX005 (ip), vehicle: saline
[14] = dose: 120.0 mg/kg/injection, schedule: Q01DX005 (ip), vehicle: saline
[15] = dose: 240.0 mg/kg/injection, schedule: Q01DX005 (ip), vehicle: saline

Measured: T/C

NC(Cc1cccs1)C(=O)O (stereo not given)
inactive: [1] 100 % of control | [2] 109 % of control | [3] 100 % of control | [4] 100 % of control | dose: 400.0 mg/kg/injection, schedule: Q01DX009 (ip), vehicle: saline with Tween-80 100 % of control | [5] 100 % of control

COc1ccc(C2CC(=O)c3c(O)cc(OC4OC(COC5OC(C)C(O)C(O)C5O)C(O)C(O)C4O)cc3O2)cc1O (stereo not given)
inactive: [6] 94 % of control | [7] 100 % of control | [8] 92 % of control

CN(C)NP(=S)(NN(C)C)Oc1ccccc1
inactive: [6] 117 % of control | [7] 99 % of control

CCOC(=O)CCC(CC)NC(=O)c1ccc(N)cc1 (stereo not given)
inactive: dose: 12.5 mg/kg/injection, schedule: Q01DX009 (ip), vehicle: distilled water + Tween-80 93 % of control | dose: 25.0 mg/kg/injection, schedule: Q01DX009 (ip), vehicle: distilled water + Tween-80 91 % of control | dose: 50.0 mg/kg/injection, schedule: Q01DX009 (ip), vehicle: distilled water + Tween-80 98 % of control | dose: 100.0 mg/kg/injection, schedule: Q01DX009 (ip), vehicle: distilled water + Tween-80 102 % of control | dose: 200.0 mg/kg/injection, schedule: Q01DX009 (ip), vehicle: distilled water + Tween-80 106 % of control

[Cu+2].[O-]/N=C/c1cccc(O)c1[O-].[O-]/N=C/c1cccc(O)c1[O-]
inactive: dose: 3.75 mg/kg/injection, schedule: Q01DX005 (ip), vehicle: saline with Tween-80 98 % of control | dose: 7.5 mg/kg/injection, schedule: Q01DX005 (ip), vehicle: saline with Tween-80 100 % of control | dose: 15.0 mg/kg/injection, schedule: Q01DX005 (ip), vehicle: saline with Tween-80 99 % of control and 104 % of control | dose: 30.0 mg/kg/injection, schedule: Q01DX005 (ip), vehicle: saline with Tween-80 102 % of control | dose: 60.0 mg/kg/injection, schedule: Q01DX005 (ip), vehicle: saline with Tween-80 99 % of control | dose: 120.0 mg/kg/injection, schedule: Q01DX005 (ip), vehicle: saline with Tween-80 92 % of control

NC(=S)N/N=C/Cn1ccc(=O)[nH]c1=O
inactive: [9] 100 % of control | [10] 98 % of control | dose: 200.0 mg/kg/injection, schedule: Q01DX005 (ip), vehicle: Klucel (hydroxypropylcellulose) (HPC) 99 % of control

OCCNCCN1CCN(CCCN2c3ccccc3Sc3ccc(C(F)(F)F)cc32)CC1
inactive: dose: 3.12 mg/kg/injection, schedule: Q04DX003 (ip), vehicle: saline 99 % of control | dose: 6.25 mg/kg/injection, schedule: Q04DX003 (ip), vehicle: saline 99 % of control and 101 % of control and 88 % of control | dose: 12.5 mg/kg/injection, schedule: Q04DX003 (ip), vehicle: saline 101 % of control and 102 % of control and 90 % of control | dose: 25.0 mg/kg/injection, schedule: Q04DX003 (ip), vehicle: saline 104 % of control and 106 % of control and 93 % of control

Oc1c2c(c3cccc4cccc1c43)=Nc1ccccc1S2
inactive: [6] 95 % of control | [7] 94 % of control | [8] 90 % of control

Cc1[nH]c2ccccc2c1-c1cc(-c2cc(-c3c(C)[nH]c4ccccc34)nc(N)n2)nc(N)n1
inactive: [11] 97 % of control | [12] 90 % of control

O=C1Nc2ccccc2S/C1=C\c1ccccc1C(F)(F)F
inactive: dose: 50.0 mg/kg/injection, schedule: Q01DX009 (ip), vehicle: saline 108 % of control | dose: 100.0 mg/kg/injection, schedule: Q01DX009 (ip), vehicle: saline 106 % of control

C[N+](C)=c1ccc2nc3c(ccc4ccccc43)oc-2c1
inactive: dose: 3.12 mg/kg/injection, schedule: Q01DX005 (ip), vehicle: saline with Tween-80 105 % of control | dose: 6.25 mg/kg/injection, schedule: Q01DX005 (ip), vehicle: saline with Tween-80 105 % of control | dose: 12.5 mg/kg/injection, schedule: Q01DX005 (ip), vehicle: saline with Tween-80 103 % of control

CCSC(=Nc1nc2ccc(NC(C)=O)cc2s1)SCC
inactive: dose: 6.25 mg/kg/injection, schedule: Q01DX009 (ip), vehicle: Klucel (hydroxypropylcellulose) (HPC) 97 % of control | dose: 12.5 mg/kg/injection, schedule: Q01DX009 (ip), vehicle: Klucel (hydroxypropylcellulose) (HPC) 101 % of control | dose: 25.0 mg/kg/injection, schedule: Q01DX009 (ip), vehicle: Klucel (hydroxypropylcellulose) (HPC) 98 % of control

C/C=C\C(/C=C/C)(C(=O)OCCN(C)C)C(/C=C\C)(/C=C/C)C(=O)OCCN(C)C (stereo not given)
inactive: [6] 100 % of control | [7] 100 % of control | [8] 91 % of control

O=C(c1ccc2c(c1)OCO2)S(=O)(=O)O
inactive: [13] 102 % of control | [14] 96 % of control | [15] 97 % of control

CC(C)(C)[Si](C)(C)OCc1ccccc1N1C(=O)C(NC(=O)Cc2ccccc2)C1/C=C/c1ccccc1 (stereo not given)
inactive: dose: 50.0 mg/kg/injection, schedule: Q01DX009 (ip), vehicle: saline with Tween-80 99 % of control | [1] 94 % of control | [3] 92 % of control

CS(=O)(=O)C(c1nc2n(c1O)/C(=N/C(=O)Nc1ccc(Cl)cc1)N=N2)c1nc2n(c1O)/C(=N/C(=O)Nc1ccc(Cl)cc1)N=N2
inactive: [13] 97 % of control | [14] 96 % of control | [15] 95 % of control

Cc1ccc(C2(c3ccc(C)cc3)CCCCCC2=O)cc1
inactive: dose: 25.0 mg/kg/injection, schedule: Q01DX005 (ip), vehicle: Klucel (hydroxypropylcellulose) (HPC) 87 % of control | [9] 90 % of control | [10] 97 % of control

CCOP(=O)(OCC)/C(C#N)=C\c1ccc(O)c(OC)c1
inactive: [2] 110 % of control | [4] 100 % of control | [5] 100 % of control

O=C1NC(=O)C2C3OC(C12)C1C2C(=O)NC(=O)C2C31 (stereo not given)
inactive: [6] 105 % of control | [7] 104 % of control

C/C=C1\CN2C3CC45c6cc(OC)c(OC)cc6N(C)C4(O3)C2CC1C5(COC(=O)c1cc(OC)c(OC)c(OC)c1)C(=O)OC (stereo not given)
inactive: dose: 11.5 mg/kg/injection, schedule: Q01DX005 (ip), vehicle: acid diluted with saline 98 % of control | dose: 23.0 mg/kg/injection, schedule: Q01DX005 (ip), vehicle: acid diluted with saline 100 % of control | dose: 46.0 mg/kg/injection, schedule: Q01DX005 (ip), vehicle: acid diluted with saline 110 % of control | dose: 92.0 mg/kg/injection, schedule: Q01DX005 (ip), vehicle: acid diluted with saline 100 % of control

C=C(c1ccccc1)N1N=NC2CCOC21 (stereo not given)
inactive: [6] 105 % of control | [7] 99 % of control | [8] 100 % of control

O=C(O)CNC1CCCCC1
inactive: [13] 95 % of control | [14] 92 % of control | [15] 87 % of control

O=C1CN=C(c2ccccc2)N(c2ccccc2)N1
inactive: [11] 107 % of control | [12] 100 % of control | dose: 240.0 mg/kg/injection, schedule: Q01DX005 (ip), vehicle: Klucel (hydroxypropylcellulose) (HPC) 103 % of control
